Reference: patent US6355799B1, “Substituted benzene compounds, process for their preparation, and herbicidal and defoliant compositions containing them” (ISK Americas Incorporated, priority 1997, dated 2002)

Columns and labels:
Format in all cases: in vivo
[1] = tested on: redroot pigweed (Amaranthus retroflexus, AMARE); experiment: Pre-emerge test, greenhouse herbicide activity screening; details: pre-emerge, 14 days after application, scale 0-100
How it was run: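 Sandy loam pots; pre-emerge: sown 1 d pre-spray, surface-watered after, then bottom-watered. Post-emerge: sown 8–21 d before, 2–3 leaf stage, + 0.25% v/v NIS, bottom-watered. Acetone, 187 l/ha track spray, 15–1000 g ai/ha. 0–100 injury score, day 14.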

[2] = tested on: barnyardgrass (Echinochloa crus-galli, ECHCG); experiment: as above; details: pre-emerge, 14 days after application, scale 0-100
How it was run: (§1)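 Compounds in acetone were track-sprayed at 187 l/ha, 15–1000 g ai/ha, onto sandy loam pots. Pre-emerge seeds were sown one day before spraying, with surface watering afterwards. Post-emerge plants were at the 2–3 leaf stage and sprayed with 0.25% v/v non-ionic surfactant. Injury was rated 0–100 at 14 days.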

[3] = tested on: green foxtail (Setaria viridis, SETVI); experiment: as above; details: pre-emerge, 14 days after application, scale 0-100
How it was run: as §1

[4] = tested on: ivyleaf morningglory (Ipomoea hederacea, IPOHE); experiment: as above; details: pre-emerge, 14 days after application, scale 0-100
How it was run: as §1

[5] = tested on: johnsongrass (Sorghum halepense, SORHA); experiment: as above; details: pre-emerge, 14 days after application, scale 0-100
How it was run: as §1

[6] = tested on: lambsquarters (Chenopodium album, CHEAL); experiment: as above; details: pre-emerge, 14 days after application, scale 0-100
How it was run: as §1

[7] = tested on: large crabgrass (Digitaria sanguinalis, DIGSA); experiment: as above; details: pre-emerge, 14 days after application, scale 0-100
How it was run: as §1

[8] = tested on: sicklepod (Cassia obtusifolia, CASOB); experiment: as above; details: pre-emerge, 14 days after application, scale 0-100
How it was run: as §1

[9] = tested on: velvetleaf (Abutilon theophrasti, ABUTH); experiment: as above; details: pre-emerge, 14 days after application, scale 0-100
How it was run: as §1

[10] = tested on: field corn (Zea mays L., var. Dekalb 535, CORN); experiment: Pre-emerge test, crop safety; details: pre-emerge, 14 days after application, scale 0-100
How it was run: as §1

[11] = tested on: upland rice (Oryza sp., var. Tebonnet, RICE); experiment: Pre-emerge test, crop safety; details: pre-emerge, 14 days after application, scale 0-100
How it was run: as §1

[12] = tested on: barnyardgrass (Echinochloa crus-galli, ECHCG); experiment: Post-emerge test, greenhouse herbicide activity screening; details: post-emerge, 14 days after application, rating scale 0-100
How it was run: (§2)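 Compounds in acetone were track-sprayed at 15-1000 g ai/ha (187 l/ha) on sandy loam pots: pre-emerge one day after seeding, post-emerge at 2-3 leaf stage with 0.25% v/v non-ionic surfactant. Phytotoxicity was rated 14 days later on a 0 (no damage) to 100 (complete death) scale.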

[13] = tested on: green foxtail (Setaria viridis, SETVI); experiment: as above; details: post-emerge, 14 days after application, rating scale 0-100
How it was run: as §2

[14] = tested on: ivyleaf morningglory (Ipomoea hederacea, IPOHE); experiment: as above; details: post-emerge, 14 days after application, rating scale 0-100
How it was run: as §2

[15] = tested on: johnsongrass (Sorghum halepense, SORHA); experiment: as above; details: post-emerge, 14 days after application, rating scale 0-100
How it was run: as §2

[16] = tested on: lambsquarters (Chenopodium album, CHEAL); experiment: as above; details: post-emerge, 14 days after application, rating scale 0-100
How it was run: as §2

[17] = tested on: large crabgrass (Digitaria sanguinalis, DIGSA); experiment: as above; details: post-emerge, 14 days after application, rating scale 0-100
How it was run: as §2

[18] = tested on: redroot pigweed (Amaranthus retroflexus, AMARE); experiment: as above; details: post-emerge, 14 days after application, rating scale 0-100
How it was run: as §2

[19] = tested on: sicklepod (Cassia obtusifolia, CASOB); experiment: as above; details: post-emerge, 14 days after application, rating scale 0-100
How it was run: as §2

[20] = tested on: velvetleaf (Abutilon theophrasti, ABUTH); experiment: as above; details: post-emerge, 14 days after application, rating scale 0-100
How it was run: as §2

[21] = tested on: field corn (Zea mays L., var. Dekalb 535, CORN); experiment: Post-emerge test, crop safety; details: post-emerge, 14 days after application, rating scale 0-100
How it was run: as §1

[22] = tested on: upland rice (Oryza sp., var. Tebonnet, RICE); experiment: Post-emerge test, crop safety; details: post-emerge, 14 days after application, rating scale 0-100
How it was run: as §1

COc1c(Br)cc(F)c(-n2c(=O)cc(C(F)(F)F)n(C)c2=O)c1N(C(=O)C=Cc1ccccc1)C(=O)C=Cc1ccccc1 [2-176]
5: CORN phytotoxicity rating (crop damage) ([21]; 250 g ai/ha)
70: phytotoxicity rating ABUTH ([9]; 250 g ai/ha) | IPOHE phytotoxicity rating ([14]; 63 g ai/ha)
20: phytotoxicity rating SETVI ([3]; 250 g ai/ha) | phytotoxicity rating DIGSA ([7]; 250 g ai/ha)
10: CASOB phytotoxicity rating ([19]; 63 g ai/ha) | RICE phytotoxicity rating (crop damage) ([22]; 63 g ai/ha)
80: CHEAL phytotoxicity rating ([16]; 63 g ai/ha)
95: IPOHE phytotoxicity rating ([14]; 250 g ai/ha)
40: phytotoxicity rating IPOHE ([4]; 250 g ai/ha)
90: phytotoxicity rating AMARE ([1]; 250 g ai/ha) | phytotoxicity rating CHEAL ([6]; 63 g ai/ha) | CHEAL phytotoxicity rating ([16]; 250 g ai/ha) | ABUTH phytotoxicity rating ([20]; 250 g ai/ha)
0: phytotoxicity rating ECHCG ([2]; 63 g ai/ha) | phytotoxicity rating ECHCG ([2]; 250 g ai/ha) | phytotoxicity rating SETVI ([3]; 63 g ai/ha) | phytotoxicity rating IPOHE ([4]; 63 g ai/ha) | phytotoxicity rating SORHA ([5]; 63 g ai/ha) | phytotoxicity rating SORHA ([5]; 250 g ai/ha) | phytotoxicity rating DIGSA ([7]; 63 g ai/ha) | phytotoxicity rating CASOB ([8]; 63 g ai/ha) | phytotoxicity rating CASOB ([8]; 250 g ai/ha) | phytotoxicity rating ABUTH ([9]; 63 g ai/ha) | phytotoxicity rating CORN (crop damage) ([10]; 63 g ai/ha) | phytotoxicity rating CORN (crop damage) ([10]; 250 g ai/ha) | phytotoxicity rating RICE (crop damage) ([11]; 63 g ai/ha) | phytotoxicity rating RICE (crop damage) ([11]; 250 g ai/ha) | ECHCG phytotoxicity rating ([12]; 63 g ai/ha) | ECHCG phytotoxicity rating ([12]; 250 g ai/ha) | SETVI phytotoxicity rating ([13]; 63 g ai/ha) | SETVI phytotoxicity rating ([13]; 250 g ai/ha) | SORHA phytotoxicity rating ([15]; 63 g ai/ha) | SORHA phytotoxicity rating ([15]; 250 g ai/ha) | DIGSA phytotoxicity rating ([17]; 63 g ai/ha) | DIGSA phytotoxicity rating ([17]; 250 g ai/ha) | CORN phytotoxicity rating (crop damage) ([21]; 63 g ai/ha)
30: CASOB phytotoxicity rating ([19]; 250 g ai/ha) | RICE phytotoxicity rating (crop damage) ([22]; 250 g ai/ha)
100: phytotoxicity rating CHEAL ([6]; 250 g ai/ha) | AMARE phytotoxicity rating ([18]; 63 g ai/ha) | AMARE phytotoxicity rating ([18]; 250 g ai/ha)
50: phytotoxicity rating AMARE ([1]; 63 g ai/ha) | ABUTH phytotoxicity rating ([20]; 63 g ai/ha)
